Reference: paper PMC7115614 (European Journal of Medicinal Chemistry, 2019)

What was measured:
[1] = system: hydroxy-HIF-1α (Pro564); test: Western blot, hydroxy-HIF-1α in MCF-7 cells; assay type: cell-based, human; conditions: 0.08 μM, 24 and 48 h
[2] = system: human embryonic lung (HEL) cells; conditions: Table 5
[3] = system: NOS2; test: Western blot, NOS2 in MCF-7 cells; assay type: cell-based, human; conditions: 0.08 μM, 24 and 48 h
[4] = system: MCF-7 cells; test: Annexin V assay for apoptosis/necrosis detection; assay type: cell-based, human; conditions: MCF-7, after 48 h, versus control

SMILES | Cytotoxicity Cell morphology (MCC) [2] [μM] | further results
CCCCCCCCCCc1cn(C[C@H](O)[C@H]2OC(=O)C(OCc3ccccc3)=C2OCc2ccccc2)nn1 [Compound 8m, 2,3-O,O-dibenzyl-6-(4-decyl-1,2,3-triazol-1-yl)-6-deoxy-L-ascorbic acid] | 20 | hydroxylated HIF-1α levels [1]: significant increase; levels of NOS2 [3]: decreased levels; increase in late apoptotic cell population [4]: 24.7%; increase of necrotic cell populations [4]: 7.92%
O=C1O/C(=C\Cn2cc(-c3ccc(Br)cc3)nn2)C(OCc2ccccc2)=C1OCc1ccccc1 [Compound 10e] | >100 | 
C[Si](C)(C)c1cn(C[C@H](O)[C@H]2OC(=O)C(OCc3ccccc3)=C2OCc2ccccc2)nn1 [Compound 8b, 2,3-O,O-dibenzyl-6-deoxy-6-(4-trimethylsilyl-1,2,3-triazol-1-yl)-L-ascorbic acid] | 100 | 
O=C1O/C(=C\Cn2cc(-c3cc(F)cc(F)c3)nn2)C(OCc2ccccc2)=C1OCc1ccccc1 [Compound 10d] | 100 | 
O=C1O/C(=C\Cn2cc(CCO)nn2)C(OCc2ccccc2)=C1OCc1ccccc1 [Compound 10p] | >100 | 
O=c1[nH]c(=O)n([C@H]2C[C@H](O)[C@@H](CO)O2)cc1/C=C/Br [Brivudin, reference compound] | >300 | 
CC(C)(C)c1cn(C/C=C2\OC(=O)C(OCc3ccccc3)=C2OCc2ccccc2)nn1 [Compound 10n] | 100 | 
CCCCc1cn(C[C@H](O)[C@H]2OC(=O)C(OCc3ccccc3)=C2OCc2ccccc2)nn1 [Compound 8l, 2,3-O,O-dibenzyl-6-(4-butyl-1,2,3-triazol-1-yl)-6-deoxy-L-ascorbic acid] | 20 | 
CC(C)(C)c1cn(C[C@H](O)[C@H]2OC(=O)C(OCc3ccccc3)=C2OCc2ccccc2)nn1 [Compound 8n, 2,3-O,O-dibenzyl-6-(4-tert-butyl-1,2,3-triazol-1-yl)-6-deoxy-L-ascorbic acid] | 100 | 
O=C1O[C@H]([C@@H](O)Cn2cc(C3CC3)nn2)C(OCc2ccccc2)=C1OCc1ccccc1 [Compound 8k, 2,3-O,O-dibenzyl-6-[4-cyclopropyl-1,2,3-triazol-1-yl]-6-deoxy-L-ascorbic acid] | 100 | 
Cc1ccc(-c2cn(C/C=C3\OC(=O)C(OCc4ccccc4)=C3OCc3ccccc3)nn2)cc1 [Compound 10f] | 20 | 
COc1ccccc1-c1cn(C/C=C2\OC(=O)C(OCc3ccccc3)=C2OCc2ccccc2)nn1 [Compound 10h] | 100 | 
COc1ccc(-c2cn(C/C=C3\OC(=O)C(OCc4ccccc4)=C3OCc3ccccc3)nn2)cc1 [Compound 10g] | >100 | 
Nc1ccn(C[C@@H](CO)OCP(=O)(O)O)c(=O)n1.O.O [Cidofovir, reference compound] | >300 | 
